We go through 16 compounds from PubChem BioAssay (NCI).

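Protocol summary: plate cells (96-well), add compound at 5 concentrations, incubate 48 h, interpolate endpoints linearly. The concentration for 50% growth inhibition is given as GI50. At the TGI there is no net growth.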

Test systems include 786-0 renal; HCT-15 colon; HOP-18 NSCLC; KM20L2 colon; OVCAR-5 ovarian; SN12C renal; SNB-19 CNS; BT-549 breast; MCF7 breast; NCI/ADR-RES ovarian.
What all share (assay): growth of human tumour cells (NCI), 48 h

As for `O=C(O)CCNS(=O)(=O)c1ccc(NC(=O)c2ccccc2)cc1`, the TGI in the assay on 786-0 renal, in the assay with HCT-15 colon, in the assay with HOP-18 NSCLC, in the assay with KM20L2 colon, with OVCAR-5 ovarian and in the assay with SN12C renal was over 100 µM each time. The TGI with SNB-19 CNS is over 100 µM.

For the compound `CCc1cccc(C)c1NS(=O)(=O)c1ccccc1`, the TGI in the assay with 786-0 renal, with HCT-15 colon, in the assay on KM20L2 colon and in the assay with OVCAR-5 ovarian was over 100 µM each time.

For the compound `C[N+](C)(C)CCC(=O)CC[N+](C)(C)C`, the TGI in the assay on 786-0 renal is 46.5 µM; in the assay with HCT-15 colon, 42.9 µM; in the assay with HOP-18 NSCLC, 31.8 µM; in the assay on KM20L2 colon, 55.4 µM; in the assay on SNB-19 CNS, over 100 µM.

In the case of `Cc1nc(C(N)=O)c(N)n1CCN1CCN(C(=O)CCCCCCCCCCNC2N=CNc3nc[nH]c32)CC1` (stereo not given), the TGI in the assay with 786-0 renal, in the assay with HCT-15 colon, in the assay on HOP-18 NSCLC, with KM20L2 colon, in the assay with OVCAR-5 ovarian and with SN12C renal was over 100 µM throughout. For the same compound, in the assay with SNB-19 CNS, the TGI was over 100 µM.

On to `O=C(NCCCOC(=O)CCCCCCCCC(=O)OCCCNC(=O)NC(=O)c1c[nH]c(=O)[nH]c1=O)NC(=O)c1c[nH]c(=O)[nH]c1=O`, for which the TGI in the assay with 786-0 renal, in the assay with HCT-15 colon, in the assay with HOP-18 NSCLC, in the assay with KM20L2 colon, with OVCAR-5 ovarian and in the assay on SN12C renal was over 100 µM in each case. The same compound yielded a TGI with SNB-19 CNS of over 100 µM.

In the case of `CCOC(=O)Cc1nc2ccc3c(c2[nH]c1=O)C(=O)c1ccccc1C3=O`, the TGI is over 100 µM in the assay on 786-0 renal; over 100 µM in the assay on HCT-15 colon; 91.6 µM with HOP-18 NSCLC; over 100 µM in the assay on KM20L2 colon; over 100 µM in the assay on OVCAR-5 ovarian; over 100 µM in the assay on SN12C renal. This compound came in with a TGI in the assay on SNB-19 CNS of over 100 µM.

As for `O=c1cc(-c2cccs2)[nH]c2cc3c(cc12)OCO3`, the TGI is over 41.3 µM in the assay on 786-0 renal; over 100 µM in the assay on HCT-15 colon; over 100 µM in the assay with HOP-18 NSCLC; 41.3 µM in the assay on KM20L2 colon; over 100 µM with OVCAR-5 ovarian; over 100 µM with SN12C renal. This compound showed a TGI in the assay on SNB-19 CNS of over 100 µM.

As to `CC1=C(C(=O)Nc2ccccc2C)C(c2ccc(Cl)cc2)C(C(=O)Nc2ccccc2C)=C(C)N1`, the TGI in the assay on 786-0 renal, in the assay with HCT-15 colon, in the assay on HOP-18 NSCLC, in the assay with OVCAR-5 ovarian, in the assay on SN12C renal and with SNB-19 CNS was over 100 µM throughout.

For the compound `O=C1CC(CC(=O)C2CCCCC2=O)C(=O)N1` (stereo not given), the TGI with 786-0 renal, in the assay on HOP-18 NSCLC, in the assay with KM20L2 colon, in the assay on OVCAR-5 ovarian, with SN12C renal and with SNB-19 CNS was over 100 µM each time.

As to `O=C1C[C@H]2CCCN2[C@@H](c2ccccc2)C1`, the TGI with 786-0 renal, with HCT-15 colon, in the assay with HOP-18 NSCLC, with KM20L2 colon, in the assay with OVCAR-5 ovarian and in the assay with SN12C renal was over 100 µM in each case. This compound registered a TGI in the assay with SNB-19 CNS of over 100 µM.

Take `COC1=NCc2ccccc2-c2ccccc21`: the TGI with 786-0 renal, with HCT-15 colon, in the assay on HOP-18 NSCLC, in the assay on SN12C renal and in the assay with SNB-19 CNS was over 100 µM in each case.

For the compound `COC(=O)c1sc(C(=O)OC)c2c1CS(=O)C2`, the TGI in the assay with 786-0 renal, with HCT-15 colon, in the assay with HOP-18 NSCLC, in the assay with KM20L2 colon, with OVCAR-5 ovarian and with SNB-19 CNS was over 100 µM in each case.

For the compound `COc1cc(C)ccc1C(=O)c1ccc(C)cc1OC`, the GI50 in the assay with 786-0 renal was 6.29 µM; in the assay on BT-549 breast it was 4.23 µM; in the assay with HCT-15 colon, 1.1 µM; in the assay with MCF7 breast, 0.92 µM; in the assay with NCI/ADR-RES ovarian, 1.31 µM; in the assay with OVCAR-5 ovarian it was 7.02 µM. Moreover, the GI50 is 15.7 µM in the assay on SN12C renal and 7.31 µM in the assay with SNB-19 CNS. In addition, the TGI in the assay with 786-0 renal was over 100 µM; in the assay with BT-549 breast, over 100 µM; with HCT-15 colon, over 100 µM; with MCF7 breast it was over 100 µM; with NCI/ADR-RES ovarian, 8.14 µM; with OVCAR-5 ovarian, over 100 µM. Further, the TGI in the assay with SN12C renal and in the assay on SNB-19 CNS was over 100 µM throughout.

Consider `O=C(Oc1cccnc1)c1cccnc1Nc1ccnc(C(F)(F)F)c1`, for which the GI50 in the assay with 786-0 renal was 5.17 µM; with BT-549 breast, 5.2 µM; with HCT-15 colon it was 27.2 µM; in the assay with MCF7 breast it was 2.68 µM; in the assay on NCI/ADR-RES ovarian, over 100 µM; in the assay with OVCAR-5 ovarian, 72.8 µM. The GI50 in the assay on SN12C renal was 6.48 µM; in the assay with SNB-19 CNS it was 48.9 µM. For the same compound, the TGI in the assay with 786-0 renal was 22.4 µM; in the assay on BT-549 breast, over 100 µM; in the assay on HCT-15 colon it was over 100 µM; with MCF7 breast it was over 100 µM; in the assay on NCI/ADR-RES ovarian, over 100 µM; in the assay with OVCAR-5 ovarian, over 100 µM. Further, the TGI with SN12C renal and in the assay on SNB-19 CNS was over 100 µM throughout.

Regarding `COc1cc2c(c3c1c(=O)c1ccccc1n3C)C=CC1(CCCC1)O2`, the TGI with 786-0 renal was 25.1 µM; in the assay with BT-549 breast, 25.5 µM; in the assay on HCT-15 colon, 35.5 µM; in the assay on MCF7 breast it was 39.4 µM; with NCI/ADR-RES ovarian, over 100 µM; in the assay on OVCAR-5 ovarian, 27 µM. Moreover, the TGI turned out to be 37.2 µM in the assay with SN12C renal and 35.2 µM in the assay on SNB-19 CNS.

For `C/C(=N/O)c1cccc(Nc2cc(-n3nnc4ccccc43)nc3ccccc23)c1`, the GI50 in the assay on 786-0 renal was 4.84 µM; in the assay on BT-549 breast it was 19.5 µM; in the assay on HCT-15 colon, 11.4 µM; in the assay on MCF7 breast it was 14.4 µM; in the assay with NCI/ADR-RES ovarian, 8.36 µM; with OVCAR-5 ovarian it was 22.5 µM. Besides, the GI50 with SN12C renal was 8.96 µM; in the assay on SNB-19 CNS, 25.7 µM. Also, the TGI is 31.3 µM in the assay with 786-0 renal; 54.7 µM in the assay on BT-549 breast; 32.8 µM in the assay on HCT-15 colon; over 55.6 µM in the assay on MCF7 breast; 27.9 µM in the assay on NCI/ADR-RES ovarian; 84.9 µM in the assay on OVCAR-5 ovarian. Further, the TGI with SN12C renal was 30.5 µM; in the assay on SNB-19 CNS it was over 100 µM.
